Results on 1 compound are retold here after US11433042B2, “Methods and compositions for treating metabolic disorders” (Joslin Diabetes Center, Inc., priority 2017, dated 2022).

A short description of assay [1]: Daily injections of 12,13-diHOME in diet-induced obese mice. Format: in vivo. On the procedure: (§1) For the experiments with daily injections of 12,13-diHOME, mice were fed with a high-fat diet containing 60 kcal % fat (Research Diets Stock no. D12492) for 16 weeks prior to treatment and during the course of the experiment. Mice were first injected intraperitoneally daily with 1 ug/kg body weight, 12,13-diHOME in 0.1% BSA w/v in PBS or vehicle and body for one week, then injected every day with 10 ug/kg body weight two weeks. For all experiments, serum was collected and triglycerides were measured using a standard enzymatic assay (ZenBiosystems). Non-esterified FA were also measured with a colorimetric assay (Wako Chemicals USA). High-density and low-density lipoprotein fractions were isolated and cholesterol was measured with a colorimetric assay (Abcam). All mice were allowed ad libitum access to water and food.

For another assay, the system named is lipoprotein lipase (LPL). Put plainly: mRNA expression by qPCR in tissue from 12,13-diHOME treated mice. Format: in vivo. The conditions noted are these: diet-induced obese mice, 2 weeks at 10 μg/kg body weight. On the procedure:
as §1, with “food. Total RNA was extracted from tissue with Trizol and purified using a spin column kit (Zymo Research). RNA (500 ng-1 μg) was reverse transcribed with a high-capacity complementary DNA (cDNA) reverse transcription kit (Applied Biosystems). Real-time PCR was performed in mouse tissues starting with 10 ng of cDNA and forward and reverse oligonucleotide primers (300 nM each) in a final volume of 10 μl with SYBR green PCR Master Mix (Roche). Fluorescence was determined and analyzed in an ABI Prism 7900 sequence detection system (Applied Biosystems). […]” for “food.”

The nature of assay [2]: Oral lipid tolerance test. Format: in vivo. The conditions noted are these: mice given an oral bolus of triglyceride, serum triglyceride.
The next assay relates to BAT. Put plainly: In vivo radiolabeled organ distribution studies (oleate, glucose, triolein). The settings on record: mice. Here is the method: For in vivo fatty acid organ distribution studies, an oleate/^3H-oleate tracer mix was complexed to fatty acid-free BSA (Schlein, et al., Cell Metab. 23, 441-453 (2016)) and injected into the tail vein of wild type C57BL/6J mice 15 minutes after treatment with either vehicle, 1 μg/kg body weight 12,13-diHOME in 0.1% BSA PBS or NE. Similarly, radiolabeled organ distribution studies were performed in mice either by injection into the tail vein with 2-desoxy-D-[^14C]-glucose (PerkinElmer, 0.025 mCi per kg) in PBS or orally gavaged with 10 mL/kg olive oil (Sigma) containing [9,10-^3H(N)]-triolein (PerkinElmer, 0.3 mCi/kg). In all assays, organs were harvested after 15 minutes under terminal anesthesia and systemic perfusion with PBS-heparin (10 U/ml) via the left heart ventricle. Tissues were homogenized by using Solvable (PerkinElmer) and disintegrations per minute per organ data were calculated by scintillation counting.

The next assay concerns mature brown adipocytes. Put plainly: In vitro fatty acid uptake (FFA-SS-Luc) in brown adipocytes constitutively expressing luciferase. Format: cell-based, mice. The settings on record: 1 μM for 15 minutes, 10 μM FFA-SS-Luc. Here is the method:
Stromal vascular cells were isolated from interscapular brown adipose tissue dissected from TgLuc mice (Stock no. 008450) obtained from The Jackson Laboratory. Cells were immortalized and differentiated into adipocytes in vitro according to the WT-1 protocol (Tseng, Y. H. et al., Mol. Cell Biol. 24, 1918-1929 (2004)). After 1 hour of serum starvation, mature adipocytes were treated with 1 μM 12,13-diHOME or methyl acetate vehicle in 0.1% w/v BSA in PBS for 15 minutes. After this treatment, cells were incubated with 10 μm FFA-SS-Luc (Intrace Medical) and imaged using the IVIS Spectrum CT using sequential 30 s exposures for 1 hour. Data was analyzed using Living Image Software and movies were assembled from individual images using ImageJ. All cultures were confirmed to be Mycoplasma free.

The subject of another assay is WT-1 brown adipocytes. Put plainly: Seahorse Bioanalyzer oxygen consumption. Format: cell-based. On the procedure: WT-1 brown preadipocytes were seeded onto gelatin coated Seahorse Plates and differentiated according to standard protocols. Cells were starved for 1 h, then treated for 15 min with 1 μM 12,13-diHOME or methyl acetate vehicle. The oxygen consumption rates (OCR) were monitored in 200 μM palmitic acid plus 100 μM albumin in a Seahorse XF24 instrument using the standard protocol of 3 min mix, 2 min wait, and 3 min measure. For the normalization of respiration to protein content, cells were lysed in RIPA buffer and protein concentration was measured using the Pierce BCA kit (Life Technologies).

For another assay, the system named is CD36. In words: Membrane fractionation and immunoblot, CD36. The format is cell-based. The conditions noted are these: differentiated WT-1 brown adipocytes, 1 μM for 15 minutes. Here is the method: (§2) WT-1 brown preadipocytes were differentiated according to a standard adipogenic differentiation protocol for 9 days before cells were serum starved for 1 hour. Cells were treated with 1 μM 12,13-diHOME or methyl acetate vehicle in 0.1% BSA w/v in PBS for 15 minutes before cells were scraped from tissue culture plates into homogenization buffer and membranes were separated according to previously published protocols (Nishiumi, S. & Ashida, H., Bioscience, biotechnology, and biochemistry. 71, 2343-2346 (2007)). Protein lysates were stored at −20° C. until further use. Protein concentrations were determined by using the Pierce BCA kit (Life Technologies) according to instructions. For immunoblots, lysates were diluted into Laemmli buffer and boiled, then loaded onto 10% Tris gels for SDS-PAGE. After complete separation of the proteins, these were transferred on a PVDF membrane (Amersham Biosciences), blocked in western blocking buffer (Roche), and primary antibodies listed in Table 1, below, were applied in blocking buffer over night at 4° C. After washing 4× for 15 min with TBS-T, secondary antibodies were applied for 1 h in blocking buffer. Membranes were washed again 3× times for 15 min in TBS-T and developed using chemiluminescence (ThermoFisher). After scanning films, densitometry was analyzed using ImageJ software.

For a further assay, the system named is FATP1. Put plainly: Membrane fractionation and immunoblot, FATP1. The conditions noted are these: differentiated WT-1 brown adipocytes, 1 μM for 15 minutes. The format is cell-based. On the procedure:
as §2

Setting [3] is: diet-induced obese mice, daily for 2 weeks at 10 μg/kg body weight.
The mark [4] stands for this setting: obese mice, chronic treatment (i.e., one week).

`CCCCCC(O)C(O)C/C=C\CCCCCCCC(=O)O` (centres unmarked) [12,13-diHOME, 12,13-dihydroxy-9Z-octadecenoic acid]: in assay [1] (setting [3]), the body weight entry was “no effect”, the “circulating non-esterified FA” value is given as “no effect”, the circulating triglyceride levels entry is “significantly decreased” and the glucose tolerance result was “no effect”. Also, in assay [1] (setting [4]), the body weight result is given as “without alteration” and the circulating triglyceride entry was “significant reduction”. Further, the “expression of lipoprotein lipase (LPL) in BAT” value in the assay on lipoprotein lipase (LPL) is “increased”. Further, the oral lipid tolerance result in assay [2] is listed as “improved”. Also, in the assay with BAT (1 μg/kg, radiolabeled oleate, similar level achieved by NE), the “FA uptake into BAT” value is “significant increase”. Besides, the “glucose uptake into BAT” value in the assay on BAT (radiolabeled glucose, similar level achieved by NE) was “significant increase”. The “BAT specific uptake of radiolabeled triglyceride” value in the assay on BAT (triglyceride delivered by oral gavage) is “enhanced”. Further, the “FFA-SS-Luc uptake in vitro” value in the assay with mature brown adipocytes is given as “significantly increased”. In addition, the basal respiration result in the assay on WT-1 brown adipocytes (1 μM for 15 min) is reported as “significantly increased”. Also, in the assay on WT-1 brown adipocytes (data not shown), the maximal respiratory capacity result is “no effect” and the uncoupling entry was “no effect”. Besides, in the assay on CD36, the “membrane translocation of the low glycosylation form of CD36” value was “robustly induced”. Moreover, the “membrane translocation of oligomeric FATP1” value with FATP1 is recorded as “robustly induced”.
